Test results reported in PubChem BioAssay AID248 (DTP/NCI, 2004).
Values joined by “and” are separate entries in the source; they are usually repeats but may differ in a detail not shown here. Equal entries are not always repeated. Toxic doses and inconclusive results are not listed. No stated cut-off is given here; in the data, active means T/C of 150% or more; inactive means T/C below 125%.

System: L1210 leukemia ip in BDF1 mice, survival T/C
Test: NCI In Vivo Anticancer Drug Screen. Data for tumor model L1210 Leukemia (intraperitoneal) in B6D2F1 (BDF1) mice
Conditions: higher = longer survival
Method in brief: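 Antitumor effect is assessed in tumor-bearing animals. Survival in the compound arm is compared with a vehicle-dosed control arm and expressed as their quotient.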

Measured: T/C

COc1cccc2c1C(=O)c1c(O)c3c(c(O)c1C2=O)C[C@@](O)(C(C)=O)C[C@@H]3OC1CC(N)C(O)C(C)O1 (stereo partly drawn)
inactive: endpoint: mean survival time, dose: 0.05 mg/kg/injection, schedule: Q01DX009 (ip), vehicle: saline 105 % of control | endpoint: mean survival time, dose: 0.1 mg/kg/injection, schedule: Q01DX015 (ip), vehicle: water 104 % of control | endpoint: mean survival time, dose: 0.1 mg/kg/injection, schedule: Q02DX008 (ip), vehicle: water 97 % of control | endpoint: mean survival time, dose: 0.14 mg/kg/injection, schedule: Q04DX002 (ip), vehicle: saline 104 % of control and 105 % of control | endpoint: mean survival time, dose: 0.14 mg/kg/injection, schedule: Q## X004 (ip), vehicle: water 103 % of control | endpoint: mean survival time, dose: 0.15 mg/kg/injection, schedule: Q02DX008 (ip), vehicle: water 106 % of control | endpoint: mean survival time, dose: 0.25 mg/kg/injection, schedule: Q04DX003 (ip), vehicle: water 104 % of control | endpoint: mean survival time, dose: 0.27 mg/kg/injection, schedule: Q04DX002 (ip), vehicle: saline 94 % of control | endpoint: mean survival time, dose: 0.54 mg/kg/injection, schedule: Q04DX002 (ip), vehicle: saline 100 % of control | endpoint: mean survival time, dose: 1.0 mg/kg/injection, schedule: Q03HX024 (ip), vehicle: water 103 % of control | endpoint: mean survival time, dose: 1.0 mg/kg/injection, schedule: Q04DX005 (ip), vehicle: saline 105 % of control | endpoint: mean survival time, dose: 1.3 mg/kg/injection, schedule: Q02DX005 (ip), vehicle: saline 97 % of control | endpoint: mean survival time, dose: 1.8 mg/kg/injection, schedule: Q## X032 (ip), vehicle: water 95 % of control | endpoint: mean survival time, dose: 2.0 mg/kg/injection, schedule: Q02DX005 (ip), vehicle: saline 102 % of control | endpoint: mean survival time, dose: 2.0 mg/kg/injection, schedule: Q02DX009 (ip), vehicle: saline 102 % of control | endpoint: mean survival time, dose: 2.0 mg/kg/injection, schedule: Q03HX024 (ip), vehicle: water 100 % of control | endpoint: mean survival time, dose: 2.7 mg/kg/injection, schedule: Q## X032 (ip), vehicle: water 100 % of control | endpoint: mean survival time, dose: 3.33 mg/kg/injection, schedule: Q01DX Z (ip), vehicle: saline 105 % of control | endpoint: mean survival time, dose: 3.95 mg/kg/injection, schedule: Q01DX Z (oral), vehicle: saline 101 % of control | endpoint: mean survival time, dose: 4.0 mg/kg/injection, schedule: Q01DX003 (ip), vehicle: saline 103 % of control | endpoint: mean survival time, dose: 4.0 mg/kg/injection, schedule: Q01DX005 (ip), vehicle: saline 102 % of control | endpoint: mean survival time, dose: 4.0 mg/kg/injection, schedule: Q01DX010 (ip), vehicle: saline 92 % of control and 103 % of control | endpoint: mean survival time, dose: 4.0 mg/kg/injection, schedule: Q01DX014 (ip), vehicle: saline 100 % of control | endpoint: mean survival time, dose: 4.0 mg/kg/injection, schedule: Q04DX005 (ip), vehicle: saline 106 % of control | endpoint: mean survival time, dose: 4.0 mg/kg/injection, schedule: Q06HX004 (ip), vehicle: water 102 % of control | endpoint: mean survival time, dose: 4.0 mg/kg/injection, schedule: Q## X Z (ip), vehicle: water 104 % of control | endpoint: mean survival time, dose: 5.0 mg/kg/injection, schedule: Q01DX009 (oral), vehicle: saline 104 % of control | endpoint: mean survival time, dose: 5.0 mg/kg/injection, schedule: Q01DX Z (ip), vehicle: saline 95 % of control | endpoint: mean survival time, dose: 5.92 mg/kg/injection, schedule: Q01DX Z (oral), vehicle: saline 106 % of control | endpoint: mean survival time, dose: 6.0 mg/kg/injection, schedule: Q01DX014 (ip), vehicle: saline 105 % of control | endpoint: mean survival time, dose: 6.25 mg/kg/injection, schedule: Q01DX009 (ip), vehicle: saline 95 % of control | endpoint: mean survival time, dose: 8.0 mg/kg/injection, schedule: Q01DX001 (ip), vehicle: water 98 % of control | endpoint: mean survival time, dose: 8.0 mg/kg/injection, schedule: Q01DX015 (ip), vehicle: saline 103 % of control | endpoint: mean survival time, dose: 8.88 mg/kg/injection, schedule: Q01DX001 (ip), vehicle: saline 105 % of control | endpoint: mean survival time, dose: 8.88 mg/kg/injection, schedule: Q01DX Z (oral), vehicle: saline 100 % of control | endpoint: mean survival time, dose: 9.0 mg/kg/injection, schedule: Q## X032 (ip), vehicle: water 104 % of control | endpoint: mean survival time, dose: 10.0 mg/kg/injection, schedule: Q04DX003 (ip), vehicle: water 104 % of control | endpoint: mean survival time, dose: 12.0 mg/kg/injection, schedule: Q02DX008 (ip), vehicle: saline 102 % of control | endpoint: mean survival time, dose: 12.5 mg/kg/injection, schedule: Q01DX001 (oral), vehicle: water 103 % of control | endpoint: mean survival time, dose: 13.0 mg/kg/injection, schedule: Q## X004 (ip), vehicle: saline 96 % of control | endpoint: mean survival time, dose: 13.3 mg/kg/injection, schedule: Q01DX001 (ip), vehicle: saline 94 % of control and 95 % of control | endpoint: mean survival time, dose: 13.3 mg/kg/injection, schedule: Q01DX Z (oral), vehicle: saline 98 % of control | endpoint: mean survival time, dose: 13.33 mg/kg/injection, schedule: Q#B X Z (oral), vehicle: water 103 % of control | endpoint: mean survival time, dose: 20.0 mg/kg/injection, schedule: Q01DX001 (ip), vehicle: water 95 % of control | endpoint: mean survival time, dose: 20.0 mg/kg/injection, schedule: Q01DX Z (oral), vehicle: saline 106 % of control | endpoint: mean survival time, dose: 25.0 mg/kg/injection, schedule: Q01DX001 (oral), vehicle: water 94 % of control | endpoint: mean survival time, dose: 25.0 mg/kg/injection, schedule: Q04DX002 (ip), vehicle: saline 97 % of control | endpoint: mean survival time, dose: 30.0 mg/kg/injection, schedule: Q01DX001 (ip), vehicle: saline 95 % of control | endpoint: mean survival time, dose: 30.0 mg/kg/injection, schedule: Q01DX Z (oral), vehicle: saline 102 % of control | endpoint: mean survival time, dose: 45.0 mg/kg/injection, schedule: Q01DX Z (oral), vehicle: saline 102 % of control | endpoint: mean survival time, dose: 50.0 mg/kg/injection, schedule: Q01DX001 (oral), vehicle: water 97 % of control | endpoint: mean survival time, dose: 80.0 mg/kg/injection, schedule: Q01DX010 (oral), vehicle: saline 103 % of control | endpoint: mean survival time, dose: 80.0 mg/kg/injection, schedule: Q07DX Z (oral), vehicle: water 97 % of control | endpoint: mean survival time, dose: 100.0 mg/kg/injection, schedule: Q01DX001 (oral), vehicle: water 100 % of control | endpoint: mean survival time, dose: 160.0 mg/kg/injection, schedule: Q07DX Z (oral), vehicle: water 101 % of control | endpoint: median survival time, dose: 0.05 mg/kg/injection, schedule: Q01DX001 (ip), vehicle: saline 100 % of control | endpoint: median survival time, dose: 0.2 mg/kg/injection, schedule: Q01DX001 (ip), vehicle: saline 94 % of control and 100 % of control | endpoint: median survival time, dose: 0.28 mg/kg/injection, schedule: Q03HX008 (ip), vehicle: water 105 % of control | endpoint: median survival time, dose: 0.8 mg/kg/injection, schedule: Q01DX001 (ip), vehicle: saline 100 % of control | endpoint: median survival time, dose: 1.75 mg/kg/injection, schedule: Q04DX003 (ip), vehicle: water 94 % of control | endpoint: median survival time, dose: 1.8 mg/kg/injection, schedule: Q01DX005 (ip), vehicle: water 105 % of control | endpoint: median survival time, dose: 2.0 mg/kg/injection, schedule: Q01DX001 (iv), vehicle: water 99 % of control | endpoint: median survival time, dose: 2.0 mg/kg/injection, schedule: Q01DX005 (ip), vehicle: other 106 % of control | endpoint: median survival time, dose: 2.0 mg/kg/injection, schedule: Q03HX008 (ip), vehicle: water 94 % of control | endpoint: median survival time, dose: 2.6 mg/kg/injection, schedule: Q04DX003 (ip), vehicle: water 105 % of control | endpoint: median survival time, dose: 3.0 mg/kg/injection, schedule: Q01DX005 (ip), vehicle: water 100 % of control | endpoint: median survival time, dose: 3.0 mg/kg/injection, schedule: Q04DX003 (sc), vehicle: water 99 % of control and 100 % of control | endpoint: median survival time, dose: 3.9 mg/kg/injection, schedule: Q01DX001 (ip), vehicle: water 100 % of control | endpoint: median survival time, dose: 3.9 mg/kg/injection, schedule: Q04DX003 (ip), vehicle: water 100 % of control | endpoint: median survival time, dose: 4.0 mg/kg/injection, schedule: Q01DX001 (ip), vehicle: saline 106 % of control | endpoint: median survival time, dose: 4.0 mg/kg/injection, schedule: Q01DX001 (iv), vehicle: water 102 % of control | endpoint: median survival time, dose: 5.0 mg/kg/injection, schedule: Q01DX017 (ip), vehicle: water 105 % of control | endpoint: median survival time, dose: 5.0 mg/kg/injection, schedule: Q04DX003 (ip), vehicle: Klucel (hydroxypropylcellulose) (HPC) 105 % of control | endpoint: median survival time, dose: 5.9 mg/kg/injection, schedule: Q01DX001 (ip), vehicle: water 105 % of control | endpoint: median survival time, dose: 5.9 mg/kg/injection, schedule: Q04DX003 (ip), vehicle: water 100 % of control | endpoint: median survival time, dose: 8.0 mg/kg/injection, schedule: Q01DX001 (iv), vehicle: water 102 % of control | endpoint: median survival time, dose: 8.3 mg/kg/injection, schedule: Q04DX003 (ip), vehicle: Klucel (hydroxypropylcellulose) (HPC) 94 % of control and 97 % of control | endpoint: median survival time, dose: 8.9 mg/kg/injection, schedule: Q01DX001 (ip), vehicle: water 94 % of control | endpoint: median survival time, dose: 10.0 mg/kg/injection, schedule: Q01DX001 (ip), vehicle: water 97 % of control and 100 % of control | endpoint: median survival time, dose: 10.0 mg/kg/injection, schedule: Q04DX003 (ip), vehicle: water 100 % of control | endpoint: median survival time, dose: 13.3 mg/kg/injection, schedule: Q01DX001 (ip), vehicle: water 100 % of control | endpoint: median survival time, dose: 25.0 mg/kg/injection, schedule: Q04DX003 (sc), vehicle: water 100 % of control and 102 % of control | endpoint: median survival time, dose: 39.0 mg/kg/injection, schedule: Q04DX003 (sc), vehicle: water 99 % of control and 100 % of control
